Key:
Type in all cases: biochemical
[1] = biological target: Human mTOR (Homo sapiens, UniProt P42345); assay: mTOR kinase assay (DELFIA format, purified enzyme); design: FLAG; conditions: read-out: TOR Kinase IC50
[2] = biological target: PI3K-alpha (Homo sapiens, UniProt P42336); assay: PI3K-alpha fluorescence polarization assay; conditions: read-out: PI3 Kinase α IC50
How it was run: (§1)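 Diluted enzyme and compound (1% DMSO) reacted with diC8 PIP2 and ATP substrate in 20 mM HEPES pH 7.5, 2 mM MgCl2, 0.05% CHAPS for 30–60 min. Stopped with EDTA buffer holding 10 nM TAMRA probe and 70 nM GST-GRP. FP (mP) read after 30–90 min against zero-time and no-enzyme controls.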

[3] = biological target: PI3K-gamma (Homo sapiens, UniProt P48736); assay: PI3K-gamma fluorescence polarization assay; conditions: read-out: PI3 Kinase γ IC50
How it was run: as §1

Sequence of PI3K-alpha (P42336 whole entry, species assumed): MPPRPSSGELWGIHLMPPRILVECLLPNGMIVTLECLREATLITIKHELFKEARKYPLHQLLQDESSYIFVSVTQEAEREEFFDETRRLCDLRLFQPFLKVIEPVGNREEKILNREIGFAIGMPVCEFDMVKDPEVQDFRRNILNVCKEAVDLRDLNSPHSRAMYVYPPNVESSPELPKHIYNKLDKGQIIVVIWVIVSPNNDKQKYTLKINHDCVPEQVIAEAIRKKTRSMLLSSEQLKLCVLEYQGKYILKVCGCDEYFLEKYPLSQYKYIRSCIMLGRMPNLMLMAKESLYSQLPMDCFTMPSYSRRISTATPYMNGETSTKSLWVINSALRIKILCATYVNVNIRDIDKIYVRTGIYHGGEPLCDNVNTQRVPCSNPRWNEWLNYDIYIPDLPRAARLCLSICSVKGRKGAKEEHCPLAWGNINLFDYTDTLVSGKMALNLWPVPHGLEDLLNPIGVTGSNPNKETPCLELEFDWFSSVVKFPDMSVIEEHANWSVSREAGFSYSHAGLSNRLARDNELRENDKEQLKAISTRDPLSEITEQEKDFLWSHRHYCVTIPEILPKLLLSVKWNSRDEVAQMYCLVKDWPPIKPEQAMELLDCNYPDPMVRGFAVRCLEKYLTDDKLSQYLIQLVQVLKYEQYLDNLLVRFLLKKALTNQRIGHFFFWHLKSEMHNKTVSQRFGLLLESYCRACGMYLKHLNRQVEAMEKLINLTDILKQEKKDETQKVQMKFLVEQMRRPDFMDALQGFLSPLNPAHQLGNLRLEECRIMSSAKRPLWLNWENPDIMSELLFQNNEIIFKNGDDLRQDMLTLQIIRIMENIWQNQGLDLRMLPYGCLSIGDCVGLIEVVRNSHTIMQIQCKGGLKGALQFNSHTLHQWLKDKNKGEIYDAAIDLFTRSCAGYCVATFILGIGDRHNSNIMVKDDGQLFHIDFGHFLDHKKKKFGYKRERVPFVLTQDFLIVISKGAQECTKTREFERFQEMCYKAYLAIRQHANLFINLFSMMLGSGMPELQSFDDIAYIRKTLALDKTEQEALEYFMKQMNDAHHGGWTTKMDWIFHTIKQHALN
Sequence of PI3K-alpha (P27986 whole entry partner, species assumed): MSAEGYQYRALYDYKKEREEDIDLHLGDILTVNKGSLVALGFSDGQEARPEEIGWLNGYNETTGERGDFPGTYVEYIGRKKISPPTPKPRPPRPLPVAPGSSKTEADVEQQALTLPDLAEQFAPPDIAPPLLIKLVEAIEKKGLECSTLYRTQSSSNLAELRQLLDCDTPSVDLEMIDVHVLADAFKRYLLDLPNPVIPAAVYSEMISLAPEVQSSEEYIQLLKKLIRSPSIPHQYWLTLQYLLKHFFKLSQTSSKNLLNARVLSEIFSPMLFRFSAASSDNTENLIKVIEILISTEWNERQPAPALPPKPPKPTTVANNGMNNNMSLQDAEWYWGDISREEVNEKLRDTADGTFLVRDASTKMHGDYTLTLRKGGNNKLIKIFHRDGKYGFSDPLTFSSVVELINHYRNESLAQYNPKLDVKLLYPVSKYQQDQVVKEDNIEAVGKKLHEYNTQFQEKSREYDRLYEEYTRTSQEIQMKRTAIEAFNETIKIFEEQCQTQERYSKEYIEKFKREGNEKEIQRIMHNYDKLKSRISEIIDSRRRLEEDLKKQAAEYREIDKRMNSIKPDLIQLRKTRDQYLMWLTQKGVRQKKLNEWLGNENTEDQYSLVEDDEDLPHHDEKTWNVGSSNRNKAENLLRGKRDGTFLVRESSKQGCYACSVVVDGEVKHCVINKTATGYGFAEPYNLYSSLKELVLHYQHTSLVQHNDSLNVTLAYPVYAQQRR
Sequence of PI3K-gamma (P48736 whole entry, species assumed): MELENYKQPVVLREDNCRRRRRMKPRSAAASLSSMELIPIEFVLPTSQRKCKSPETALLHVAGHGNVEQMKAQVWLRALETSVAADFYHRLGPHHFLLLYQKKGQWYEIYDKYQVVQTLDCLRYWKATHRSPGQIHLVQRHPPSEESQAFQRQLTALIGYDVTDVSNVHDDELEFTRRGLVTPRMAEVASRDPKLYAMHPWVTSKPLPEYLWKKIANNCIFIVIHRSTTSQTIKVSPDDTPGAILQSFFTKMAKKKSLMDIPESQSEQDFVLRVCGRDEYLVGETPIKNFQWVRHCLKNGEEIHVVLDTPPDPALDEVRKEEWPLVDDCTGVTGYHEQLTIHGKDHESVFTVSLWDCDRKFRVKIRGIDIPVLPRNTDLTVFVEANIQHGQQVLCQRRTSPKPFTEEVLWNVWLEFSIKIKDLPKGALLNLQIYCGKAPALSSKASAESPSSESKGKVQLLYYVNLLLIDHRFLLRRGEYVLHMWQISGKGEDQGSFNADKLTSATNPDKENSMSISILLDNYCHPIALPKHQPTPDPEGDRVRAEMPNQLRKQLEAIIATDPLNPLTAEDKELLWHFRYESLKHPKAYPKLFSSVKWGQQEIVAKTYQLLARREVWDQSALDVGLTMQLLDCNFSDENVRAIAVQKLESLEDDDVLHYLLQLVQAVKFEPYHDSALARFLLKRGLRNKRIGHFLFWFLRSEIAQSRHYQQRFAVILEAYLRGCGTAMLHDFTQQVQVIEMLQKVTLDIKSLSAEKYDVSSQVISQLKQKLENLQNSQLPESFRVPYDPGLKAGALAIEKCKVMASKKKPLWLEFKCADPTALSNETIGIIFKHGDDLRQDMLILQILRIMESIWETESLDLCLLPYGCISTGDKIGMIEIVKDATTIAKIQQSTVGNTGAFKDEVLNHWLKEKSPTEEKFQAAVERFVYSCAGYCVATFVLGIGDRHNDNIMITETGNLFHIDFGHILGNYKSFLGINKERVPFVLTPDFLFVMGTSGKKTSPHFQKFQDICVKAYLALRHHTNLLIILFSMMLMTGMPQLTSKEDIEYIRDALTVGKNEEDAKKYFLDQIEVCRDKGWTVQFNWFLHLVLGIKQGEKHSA

IC50 [1] [nM] | IC50 [2] [nM] | IC50 [3] [nM] | Compound
44 | 74 | 313 | CCN1CCC(S(=O)(=O)n2ccc3c4nc(-c5ccc(NC(=O)Nc6ccncc6)cc5)nc(N5CCOCC5)c4ccc32)CC1 [Example 64, 1-(4-{7-[(1-ethylpiperidin-4-yl)sulfonyl]-4-morpholin-4-yl-7H-pyrrolo[2,3-h]quinazolin-2-yl}phenyl)-3-pyridin-4-ylurea]
73 | 48 | 300 | CC(C)N1CCC(S(=O)(=O)n2ccc3c4nc(-c5ccc(NC(=O)Nc6ccncc6)cc5)nc(N5CCOCC5)c4ccc32)CC1 [Example 65, 1-(4-{7-[(1-isopropylpiperidin-4-yl)sulfonyl]-4-morpholin-4-yl-7H-pyrrolo[2,3-h]quinazolin-2-yl}phenyl)-3-pyridin-4-ylurea]
2250 | 245 | 5750 | O=C(OCc1ccccc1)N1CCC(S(=O)(=O)n2ccc3c4nc(-c5cccc(O)c5)nc(N5CCOCC5)c4ccc32)CC1 [Example 66, benzyl 4-{[2-(3-hydroxyphenyl)-4-morpholin-4-yl-7H-pyrrolo[2,3-h]quinazolin-7-yl]sulfonyl}piperidine-1-carboxylate]
670 | 231 | 1580 | O=S(=O)(C1CCNCC1)n1ccc2c3nc(-c4cccc(O)c4)nc(N4CCOCC4)c3ccc21 [Example 67, 3-[4-morpholin-4-yl-7-(piperidin-4-ylsulfonyl)-7H-pyrrolo[2,3-h]quinazolin-2-yl]phenol]
1110 | 274 | 1130 | O=S(=O)(c1ccccc1)n1ccc2c3nc(-c4cccc(O)c4)nc(N4CCOCC4)c3ccc21 [Example 69, 3-[4-morpholin-4-yl-7-(phenylsulfonyl)-7H-pyrrolo[2,3-h]quinazolin-2-yl]phenol]
5800 | 168 | 2070 | O=S(=O)(c1ccccc1)n1ccc2c3nc(-c4cccc(CO)c4)nc(N4CCOCC4)c3ccc21 [Example 70, {3-[4-morpholin-4-yl-7-(phenylsulfonyl)-7H-pyrrolo[2,3-h]quinazolin-2-yl]phenyl}methanol]
545 | 52 | 114 | Nc1ncc(-c2nc(N3CCOCC3)c3ccc4c(ccn4S(=O)(=O)c4ccccc4)c3n2)cn1 [Example 71, 5-[4-morpholin-4-yl-7-(phenylsulfonyl)-7H-pyrrolo[2,3-h]quinazolin-2-yl]pyrimidin-2-amine]
3250 | 4010 | 5160 | O=S(=O)(c1ccccc1)n1ccc2c3nc(-c4cccc5[nH]ncc45)nc(N4CCOCC4)c3ccc21 [Example 72, 2-(1H-indazol-4-yl)-4-morpholin-4-yl-7-(phenylsulfonyl)-7H-pyrrolo[2,3-h]quinazoline]
63 | 62 | 198 | CS(=O)(=O)n1ccc2c3nc(-c4cnc(N)nc4)nc(N4CCOCC4)c3ccc21 [Example 73, 5-[7-(methylsulfonyl)-4-morpholin-4-yl-7H-pyrrolo[2,3-h]quinazolin-2-yl]pyrimidin-2-amine]
545 | 212 | 1190 | CS(=O)(=O)n1ccc2c3nc(-c4cccc(CO)c4)nc(N4CCOCC4)c3ccc21 [Example 74, {3-[7-(methylsulfonyl)-4-morpholin-4-yl-7H-pyrrolo[2,3-h]quinazolin-2-yl]phenyl}methanol]
16500 | > 10000 | > 10000 | COCOc1cncc(-c2nc(N3CCOCC3)c3ccc4c(ccn4S(C)(=O)=O)c3n2)c1 [Example 75, 2-[5-(methoxymethoxy)pyridin-3-yl]-7-(methylsulfonyl)-4-morpholin-4-yl-7H-pyrrolo[2,3-h]quinazoline]
130 | 65 | 82 | CS(=O)(=O)n1ccc2c3nc(-c4cncc(O)c4)nc(N4CCOCC4)c3ccc21 [Example 76, 5-[7-(methylsulfonyl)-4-morpholin-4-yl-7H-pyrrolo[2,3-h]quinazolin-2-yl]pyridin-3-ol]
